Assay [1] addresses Glutamate receptor ionotropic, NMDA 2B (Homo sapiens, UniProt Q05586+Q13224). Description: Displacement of [3H]ifenprodil from human recombinant GluN2B expressed in mouse L(tk-) cell membranes co-expressing GluN1a incubated for 120 mins by scintillation counting method. (In general: Displacement assays read how much labelled ligand stays bound in the presence of the test substance.)

Assay [2] deals with Sigma non-opioid intracellular receptor 1 (Cavia porcellus, UniProt Q60492). The assay is described as follows: Displacement of [3H]-(+)-pentazocine from sigma1 receptor in guinea pig brain membranes incubated for 120 mins by scintillation counting method. The format is cell membranes, Membrane.
Sigma non-opioid intracellular receptor 1, sequence (Q60492 whole entry): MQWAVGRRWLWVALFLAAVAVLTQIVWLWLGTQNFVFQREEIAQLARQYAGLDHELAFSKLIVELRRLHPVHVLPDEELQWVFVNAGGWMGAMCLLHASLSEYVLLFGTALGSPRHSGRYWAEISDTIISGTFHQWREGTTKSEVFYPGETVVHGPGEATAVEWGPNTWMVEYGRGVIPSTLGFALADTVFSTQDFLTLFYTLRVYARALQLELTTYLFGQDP
Assay [3] has as its target T1, Sigma intracellular receptor 2 (Rattus norvegicus, UniProt Q5U3Y7).
T1 sequence (Q5U3Y7 whole entry): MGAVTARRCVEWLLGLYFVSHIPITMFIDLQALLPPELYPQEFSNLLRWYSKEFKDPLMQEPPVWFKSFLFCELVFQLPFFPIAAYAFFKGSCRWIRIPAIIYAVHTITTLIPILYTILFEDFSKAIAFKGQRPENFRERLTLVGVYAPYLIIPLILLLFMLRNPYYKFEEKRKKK
Description: Displacement of [3H]-di-o-tolylguanidine from sigma2 receptor in rat liver membranes incubated for 120 mins in the presence of sigma1 receptor ligand (+)-pentazocine by scintillation counting method. It counts as cell membranes, Membrane.

Assay [4] can be described thus: Selectivity index, ratio of Ki for sigma2 receptor in rat liver membranes to Ki for human GluN2B expressed in mouse L(tk-) cell membranes co-expressing GluN1a. The format is cell-based.
Assay [5] can be described thus: Selectivity index, ratio of Ki for sigma1 receptor in guinea pig brain membranes to Ki for human GluN2B expressed in mouse L(tk-) cell membranes co-expressing GluN1a. It counts as cell-based.
Assay [6] in a line: Cytoprotection against glutamate/glycine-induced cytotoxicity against mouse LTK cells expressing GluN1a/GluN2B assessed as inhibition of cell death incubated for 12 hrs by LDH assay. It counts as functional, cell-based.

Glutamate receptor ionotropic, NMDA 2B, sequence (Q13224 whole entry, one chain of several): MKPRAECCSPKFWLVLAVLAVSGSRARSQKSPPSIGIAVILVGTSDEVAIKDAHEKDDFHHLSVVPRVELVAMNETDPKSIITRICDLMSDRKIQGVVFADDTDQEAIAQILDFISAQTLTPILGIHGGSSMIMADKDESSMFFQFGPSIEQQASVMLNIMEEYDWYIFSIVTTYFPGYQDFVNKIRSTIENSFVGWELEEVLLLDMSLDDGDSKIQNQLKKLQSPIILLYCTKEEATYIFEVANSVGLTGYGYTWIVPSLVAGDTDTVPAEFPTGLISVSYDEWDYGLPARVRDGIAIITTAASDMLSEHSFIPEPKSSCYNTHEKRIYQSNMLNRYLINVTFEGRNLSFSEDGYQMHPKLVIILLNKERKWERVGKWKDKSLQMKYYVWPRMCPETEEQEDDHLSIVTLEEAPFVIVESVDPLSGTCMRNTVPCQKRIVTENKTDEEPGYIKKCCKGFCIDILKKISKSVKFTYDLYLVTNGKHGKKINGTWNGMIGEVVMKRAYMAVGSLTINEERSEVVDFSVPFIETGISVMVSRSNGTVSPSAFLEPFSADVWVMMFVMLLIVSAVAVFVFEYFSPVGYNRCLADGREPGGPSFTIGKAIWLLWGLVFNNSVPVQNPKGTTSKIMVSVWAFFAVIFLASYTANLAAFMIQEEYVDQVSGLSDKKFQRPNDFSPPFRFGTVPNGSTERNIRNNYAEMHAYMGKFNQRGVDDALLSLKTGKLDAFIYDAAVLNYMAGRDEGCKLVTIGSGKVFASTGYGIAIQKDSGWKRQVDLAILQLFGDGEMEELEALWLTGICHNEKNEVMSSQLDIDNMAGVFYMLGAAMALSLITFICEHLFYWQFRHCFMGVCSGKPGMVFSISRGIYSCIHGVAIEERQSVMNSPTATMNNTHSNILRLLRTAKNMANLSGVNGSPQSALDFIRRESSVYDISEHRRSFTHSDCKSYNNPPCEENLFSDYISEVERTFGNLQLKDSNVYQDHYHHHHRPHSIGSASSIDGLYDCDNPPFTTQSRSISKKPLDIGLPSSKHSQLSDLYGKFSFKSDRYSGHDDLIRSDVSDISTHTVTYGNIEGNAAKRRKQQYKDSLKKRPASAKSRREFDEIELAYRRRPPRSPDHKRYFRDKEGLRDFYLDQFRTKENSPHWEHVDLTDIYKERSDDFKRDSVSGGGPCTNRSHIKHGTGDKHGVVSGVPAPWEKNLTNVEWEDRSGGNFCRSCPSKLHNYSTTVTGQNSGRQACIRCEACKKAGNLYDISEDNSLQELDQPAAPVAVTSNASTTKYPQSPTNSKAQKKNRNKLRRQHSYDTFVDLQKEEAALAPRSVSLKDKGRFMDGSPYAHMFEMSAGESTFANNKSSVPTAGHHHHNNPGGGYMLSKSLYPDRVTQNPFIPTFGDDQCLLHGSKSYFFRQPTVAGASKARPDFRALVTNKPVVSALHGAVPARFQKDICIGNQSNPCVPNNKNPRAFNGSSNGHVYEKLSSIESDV

For orientation: Ki means the dissociation constant of the complex between target and ligand, obtained from inhibition or displacement. As for `c1ccc(CCCCNC2CCc3ccsc3CC2)cc1` (configuration not stated), the figures for the Ki in assay [1], in assay [2] and in assay [3] were 11 nM, 62 nM and 5.7 nM, respectively.
On to `CN(CCCc1ccccc1)C1CCc2cc(CO)sc2CC1` (configuration not stated), for which the figures for the Ki in assay [1], in assay [2] and in assay [3] were 141 nM, 6.4 nM and 21 nM, respectively.
On the same counts, the results for `OCc1cc2c(s1)CCC(NCCCc1ccccc1)CC2` (configuration not stated) are 183 nM, 61 nM and 30 nM.
Consider `CCN(CCCCc1ccccc1)C1CCc2ccsc2CC1` (configuration not stated), for which the Ki amounted to 33 nM in assay [1], 12 nM in assay [2] and 46 nM in assay [3].
As for `Brc1cc2c(s1)CCC(NCCCc1ccccc1)CC2` (configuration not stated), the figures for the Ki in assay [1], in assay [2] and in assay [3] were 13 nM, 41 nM and 43 nM, respectively. The Ratio Ki in assay [4] and in assay [5] was 3 in each case.
Turning to `CCN(Cc1ccccc1)C1CCc2ccsc2CC1` (configuration not stated), the Ki in assay [1] was determined as 61 nM; in assay [2], 60 nM; in assay [3] it was 149 nM.
Taken in the same sequence, the figures for `Brc1cc2c(s1)CCC(NCCCCc1ccccc1)CC2` (configuration not stated) were 23 nM, 14 nM and 13 nM.
Taken in the same sequence, the figures for `CN(CCc1ccccc1)C1CCc2ccsc2CC1` (configuration not stated) were 130 nM, 42 nM and 63 nM.
As for `c1ccc(CCCNC2CCc3ccsc3CC2)cc1` (configuration not stated), the figures for the Ki in assay [1], in assay [2] and in assay [3] were 5.9 nM, 187 nM and 5.1 nM, respectively.
One may read the IC50 as the concentration that inhibits the measured activity by half. As for `COc1ccc2c(c1)CC[C@H](NCCCc1ccccc1)C[C@@H]2O` (relative stereo), the IC50 in assay [6] amounted to 12 nM.
On to `CN(CCCCc1ccccc1)C1CCc2ccsc2CC1` (configuration not stated), for which the Ki in assay [1] amounted to 9 nM; in assay [2] it was 17 nM; in assay [3], 12 nM. The Ratio Ki in assay [4] and in assay [5] was 1.5 to 2 each time.
On to `c1ccc(CCNC2CCc3ccsc3CC2)cc1` (configuration not stated), for which the Ki in assay [1] came out at 33 nM; in assay [2], 133 nM; in assay [3] it was 56 nM.
On to `OCc1cc2c(s1)CCC(NCCCCc1ccccc1)CC2` (configuration not stated), for which the Ki in assay [1] was 764 nM; in assay [2] it was 84 nM; in assay [3] it was 73 nM.
Take `CCN(CCc1ccccc1)C1CCc2ccsc2CC1` (configuration not stated): the Ki in assay [1] amounted to 196 nM; in assay [2] it was 59 nM; in assay [3] it was 141 nM.
Consider `CN(CCCc1ccccc1)C1CCc2ccsc2CC1` (configuration not stated), for which the values for the Ki in assay [1], in assay [2] and in assay [3] were 6 nM, 10 nM and 13 nM, respectively. For the same molecule, the Ratio Ki in assay [4] and in assay [5] was 2 each time.
Take `CCN(CCCc1ccccc1)C1CCc2ccsc2CC1` (configuration not stated): the Ki in assay [1] is 51 nM; in assay [2], 17 nM; in assay [3], 33 nM.
Taken in the same sequence, the figures for `Oc1ccc(-c2cc3c(s2)CCC(NCCCc2ccccc2)CC3)cc1` (configuration not stated) were 60 nM, 181 nM and 63 nM.
On to `Clc1ccc2c(c1)CCC(NCCCc1ccccc1)CC2` (configuration not stated), for which the Ki in assay [1] was found to be 2.1 nM.
On to `CN(CCc1ccccc1)C1CCc2cc(CO)sc2CC1` (configuration not stated), for which the Ki in assay [1] is 726 nM; in assay [2] it was 56 nM; in assay [3], 48 nM.
Regarding `CN(Cc1ccccc1)C1CCc2ccsc2CC1` (configuration not stated), the Ki was 72 nM in assay [1], 49 nM in assay [2] and 91 nM in assay [3].

(Values after ChEMBL document CHEMBL4610008, “Thiophene bioisosteres of GluN2B selective NMDA receptor antagonists: Synthesis and pharmacological evaluation of [7]annuleno[b]thiophen-6-amines” (Bioorg Med Chem, 2020).)
